US8791098B2 (priority 2008, dated 2014)
Values after ≈ are worked out from the molar mass of the structure shown. Read-outs that look alike come from different tables or passages of the source.

Columns and labels:
L929 = experiment: Anti-proliferation MTT assay (Example 2, Table 1); type: cell-based; conditions: L929 mouse connective tissue fibroblast
Method: (§3) A given number of cells were cultivated in 96-well plates with serial dilutions of the drugs up to 100 ng/ml. Tubulysin A is used as a positive control, whereas methanol is used as a negative control. After 5 days of incubation the metabolic activities of the cells were measured using MTT-assay as described under the methods section.

A549 [1] = experiment: Anti-proliferation MTT assay (Example 2, Table 1); type: cell-based; conditions: A549 human lung carcinoma
Method: as §3

SW-480 = experiment: Anti-proliferation MTT assay (Example 2, Table 1); type: cell-based; conditions: SW480; SW-480 human colon adenocarcinoma
Method: as §3

U937 [2] = experiment: Anti-proliferation MTT assay (Example 2, Table 1); type: cell-based; conditions: U-937; U937 human histiocytic lymphoma
Method: as §3

COS-7 = experiment: cells; type: cell-based, African green monkey; conditions: Chlorocebus sabaeus; COS-7, average of two measurements; read-out: IC50
Method: (§1) Cytotoxicity testing of pretubulysin (AU827), N-desmethyl-pretubulysin (AU816) and Tubulysin A and D was performed as follows: Cells were seeded at 6×10^3 cells per well of 96-well plates in 180 μl complete medium and directly treated with varying concentrations of (pre-)tubulysins diluted in methanol. Each compound was tested in duplicate as well as the internal methanol control. After 5 d incubation, 20 μl of 5 mg/ml MTT (Thiazolyl blue tetrazolium bromide) in PBS was added per well and it was further incubated for 2 h at 37° C. The medium was then discarded and cells were washed with 100 μl PBS before adding 100 μl 2-propanol/10 N HCl (250:1) in order to dissolve formazan granules.
(§2) The absorbance at 570 nm was measured using a microplate reader (EL808, Bio-Tek Instruments Inc.), and cell viability was expressed as percentage relative to the respective methanol control. IC50 values were obtained by plotting relative growth inhibition in % against the compound concentration on a logarithmic scale. After sigmoidal curve fitting IC50 values can be determined. The IC50[per ml] are shown in the following table (values represent the average of two measurements): […]

A431 = experiment: cells; type: cell-based, human; conditions: Homo sapiens, A-431; A431, average of two measurements; read-out: IC50
Method: as §1, §2

A549 [3] = experiment: cells; type: cell-based, human; conditions: Homo sapiens; A549, average of two measurements; read-out: IC50
Method: as §1, §2

HEK293T = experiment: cells; type: cell-based, human; conditions: Homo sapiens, HEK-293T, average of two measurements, read-out: IC50
Method: as §1, §2

HL-60 = experiment: cells; type: cell-based, human; conditions: Homo sapiens; HL-60, average of two measurements; read-out: IC50
Method: as §1, §2

HepG2 = experiment: cells; type: cell-based, human; conditions: Homo sapiens; HepG2, average of two measurements; read-out: IC50
Method: as §1, §2

K562 = experiment: cells; type: cell-based, human; conditions: Homo sapiens; K562, average of two measurements; read-out: IC50
Method: as §1, §2

KB3.1 = experiment: cells; type: cell-based, human; conditions: Homo sapiens, KB 3-1; KB3.1, average of two measurements; read-out: IC50
Method: as §1, §2

SH-SY5Y = experiment: cells; type: cell-based, human; conditions: Homo sapiens, average of two measurements, read-out: IC50
Method: as §1, §2

SW480 = experiment: cells; type: cell-based, human; conditions: Homo sapiens; SW480, average of two measurements; read-out: IC50
Method: as §1, §2

U937 [4] = experiment: cells; type: cell-based, human; conditions: Homo sapiens, U-937; U937, average of two measurements; read-out: IC50
Method: as §1, §2

PtK2 cells = type: cell-based; conditions: for concentration at which effects on microtubules and spindle morphologies appear / concentration for complete de-polymerization (disappearance) of interphase microtubules: 24 hours incubation
Method: Cell staining: Ptk2 cells were seeded on round glass coverslips (13 mm in diameter) in 4-well plates. Cells were incubated with the drugs to the given times as indicated for each experiment. For staining the microtubules and the nuclei, cells were firstly fixed with cold (−20° C.) acetone/methanol (1:1) for 10 min. For labelling the microtubules, cells were incubated with a primary monoclonal antibody against α-tubulin (1:500 Sigam) for 45 min at 37° C., followed by a secondary anti-mouse IgG antibody conjugated with Alexa488 (1:2000; Molecular probes) under the same incubations conditions. The nuclei were stained with DAPI (1 μg/ml in PBS). The cells were washed with phosphate buffer saline (PBS) between incubations. Coverslips were mounted by using Prolong Antifade (Molecular Probes) and imaged through a fluorescence microscope (LSM-Zeiss) with appropriate filter set.
Tubulysin A and D are known to induce de-polymerization of the interphase microtubules of mammalian cells and additionally induce a multi-polar spindle pool in mitotic cells (Khalil, M. et al., Chembiochem. 7, 678-683 (2006); Sasse, F., Menche, D. Nat. Chem. Biol. 3, 87-89 (2007)). Here the effect of pre-tubulysin treatment on the morphologies of microtubules and microtubules related structures in PtK2 cells was tested. PtK2 cells were seeded onto glass cover clips in 4 well plates and cultivated for 24 or 48 hours under growth conditions. The cells were then treated with different concentrations of tubulysin A, tubulysin D, pre-tubulysin-816 or pre-tubulysin-827. The control cells were treated only with equivalent amount of methanol (solvent). The cells were thin incubated for further 24 hours before they were fixed as described under the methods section. Fixed cells were then washed with PBS and finally labeled with anti-α-tubulin primary antibodies followed by anti-mouse-alexa-488 secondary antibodies to visualize the microtubules. The nuclei were stained with DAPI.

KB.3.1 cells = experiment: Cell cycle analysis (FACS, DNA content); type: cell-based, human
Method: Cell cycle analysis: approximately 10^6 cells were harvested by centrifugation and fixed in −20° C. cold 80% methanol. After 30 min of incubation on ice, the cells were washed with PBS and then with saponin containing PBS (0.1%). For DNA staining cells were incubated for 30 min at 37° C. in a solution containing 20 μg ml^−1 Propidium iodide, and 1 mg ml^−1 RNase. Samples were analysed by FacScan (Becton Dickinson).
All drugs that target the microtubules are known to induce a cell cycle arrest in G2M phase in different cell lines. The ability of pre-tubulysin-816 and -827 on the progress of cell cycle in the cervices carcinoma cell line KB.3.1 was tested. Cells were treated with different concentrations of the drugs and incubated for 24 hours under cultivation conditions. After the incubation time was ended, cells were collected by centrifugation, fixed and the DNA was labeled as described in the method sections. The DNA content of the cells was detected via FACS analysis. The resulting data were calculated using Dean-Jett-Fox algorithm.

[5] = test system: L929, A549, SW-480, U937 and HL-60 cell lines; experiment: Anti-proliferation MTT assay, comparison over the tested cell lines; type: cell-based
Method: as §3

SMILES | IC50 (L929) | IC50 (A549 [1]) | IC50 (SW-480) | IC50 (U937 [2]) | IC50 (COS-7) | IC50 (A431) | IC50 (A549 [3]) | IC50 (HEK293T) | IC50 (HL-60) | IC50 (HepG2) | IC50 (K562) | IC50 (KB3.1) | IC50 (SH-SY5Y) | IC50 (SW480) | IC50 (U937 [4]) | concentration at which effects on microtubules and spindle morphologies appear (PtK2 cells) | concentration for complete de-polymerization (disappearance) of interphase microtubules (PtK2 cells) | further results
CC[C@H](C)[C@H](NC(=O)[C@H]1CCCCN1C)C(=O)N(C)[C@H](CCc1nc(C(=O)N[C@H](CCC(=O)O)Cc2ccccc2)cs1)C(C)C [pre-tubulysin-816, N-desmethyl-pretubulysin] | 37 ng/mL (≈ 56.4 nM) | 95 ng/mL (≈ 145 nM) | 1.37 ng/mL (≈ 2.09 nM) | 0.4 ng/mL (≈ 0.61 nM) | 9.63 ng/mL (≈ 14.7 nM) | 0.34 ng/mL (≈ 0.518 nM) | 31.2 ng/mL (≈ 47.6 nM) | 1.68 ng/mL (≈ 2.56 nM) | 0.22 ng/mL (≈ 0.335 nM) | 8.75 ng/mL (≈ 13.3 nM) | 2.5 ng/mL (≈ 3.81 nM) | 26.3 ng/mL (≈ 40.1 nM) | 2.9 ng/mL (≈ 4.42 nM) | 3.16 ng/mL (≈ 4.82 nM) | 0.38 ng/mL (≈ 0.579 nM) | ≥ 500 ng/ml | around 5 μg/ml | concentration for complete de-polymerization (disappearance) of interphase microtubules (PtK2 cells; listed as Pre-tubulysin-816): 5 µg/mL; effect on the interphase microtubules (PtK2 cells; concentrations up to 250 ng/ml, 24 h): did not show any clear effect; G2M cell cycle arrest (KB.3.1 cells; KB.3.1 cells, 24 hours): induced an accumulation of the cells in the G2M-phase
CC[C@H](C)[C@H](NC(=O)[C@H]1CCCCN1C)C(=O)N(C)[C@H](CCc1nc(C(=O)N[C@@H](Cc2ccccc2)C[C@H](C)C(=O)O)cs1)C(C)C [pre-tubulysin-827, pretubulysin] | 4.1 ng/mL (≈ 6.12 nM) | 9 ng/mL (≈ 13.4 nM) | 0.15 ng/mL (≈ 0.224 nM) | 0.09 ng/mL (≈ 0.134 nM) | 1.13 ng/mL (≈ 1.69 nM) | 1.24 ng/mL (≈ 1.85 nM) | 4.35 ng/mL (≈ 6.49 nM) | 0.227 ng/mL (≈ 0.339 nM) | 0.0142 ng/mL (≈ 0.0212 nM) | 0.64 ng/mL (≈ 0.955 nM) | 0.35 ng/mL (≈ 0.522 nM) | 2.32 ng/mL (≈ 3.46 nM) | 0.61 ng/mL (≈ 0.911 nM) | 0.21 ng/mL (≈ 0.313 nM) | 0.043 ng/mL (≈ 0.0642 nM) | 50 ng/ml | ≥ 1 µg/mL | concentration for complete de-polymerization (disappearance) of interphase microtubules (PtK2 cells; listed as Pre-tubulysin-827): 1 µg/mL; cells accumulated in the G2M-phase (KB.3.1 cells; KB3.1 cells, 100 ng/ml, 24 h (control approximately 30%)): 65%; potency/toxicity of pre-tubulysin-827 relative to pre-tubulysin-816 [5]: 5-10 folds
